According to US20250034216A1, “STEREOSELECTIVE COVALENT LIGANDS FOR ONCOGENIC AND IMMUNOLOGICAL PROTEINS” (The Scripps Research Institute, priority 2021, published 2025):

Assays:
Test in all cases: IA-DTB cysteine engagement
Format in all cases: binding
Conditions in all cases: 22Rv1 cells, 20 μM probe, 1 h, relative to DMSO
PDE3B_C311 = biological target: T1, PDE3B_C311 (Homo sapiens, UniProt Q13370)
T1 construct: endogenous in cells; host or cells: 22Rv1
Summary of the method: (§1)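 Probe-exposed cells were lysed, IA-DTB-labeled, trypsinized and streptavidin-enriched. Multiplexed TMT quantitation gave engagement ratios versus DMSO, with non-tryptic peptides excluded and intensities normalized to median summed signal.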

GRIN2C_C1105 = biological target: T2, GRIN2C_C1105 (Homo sapiens, UniProt Q14957)
T2 construct: endogenous in cells; host or cells: 22Rv1
T2 sequence (Q14957 20-1233, other chains not shown): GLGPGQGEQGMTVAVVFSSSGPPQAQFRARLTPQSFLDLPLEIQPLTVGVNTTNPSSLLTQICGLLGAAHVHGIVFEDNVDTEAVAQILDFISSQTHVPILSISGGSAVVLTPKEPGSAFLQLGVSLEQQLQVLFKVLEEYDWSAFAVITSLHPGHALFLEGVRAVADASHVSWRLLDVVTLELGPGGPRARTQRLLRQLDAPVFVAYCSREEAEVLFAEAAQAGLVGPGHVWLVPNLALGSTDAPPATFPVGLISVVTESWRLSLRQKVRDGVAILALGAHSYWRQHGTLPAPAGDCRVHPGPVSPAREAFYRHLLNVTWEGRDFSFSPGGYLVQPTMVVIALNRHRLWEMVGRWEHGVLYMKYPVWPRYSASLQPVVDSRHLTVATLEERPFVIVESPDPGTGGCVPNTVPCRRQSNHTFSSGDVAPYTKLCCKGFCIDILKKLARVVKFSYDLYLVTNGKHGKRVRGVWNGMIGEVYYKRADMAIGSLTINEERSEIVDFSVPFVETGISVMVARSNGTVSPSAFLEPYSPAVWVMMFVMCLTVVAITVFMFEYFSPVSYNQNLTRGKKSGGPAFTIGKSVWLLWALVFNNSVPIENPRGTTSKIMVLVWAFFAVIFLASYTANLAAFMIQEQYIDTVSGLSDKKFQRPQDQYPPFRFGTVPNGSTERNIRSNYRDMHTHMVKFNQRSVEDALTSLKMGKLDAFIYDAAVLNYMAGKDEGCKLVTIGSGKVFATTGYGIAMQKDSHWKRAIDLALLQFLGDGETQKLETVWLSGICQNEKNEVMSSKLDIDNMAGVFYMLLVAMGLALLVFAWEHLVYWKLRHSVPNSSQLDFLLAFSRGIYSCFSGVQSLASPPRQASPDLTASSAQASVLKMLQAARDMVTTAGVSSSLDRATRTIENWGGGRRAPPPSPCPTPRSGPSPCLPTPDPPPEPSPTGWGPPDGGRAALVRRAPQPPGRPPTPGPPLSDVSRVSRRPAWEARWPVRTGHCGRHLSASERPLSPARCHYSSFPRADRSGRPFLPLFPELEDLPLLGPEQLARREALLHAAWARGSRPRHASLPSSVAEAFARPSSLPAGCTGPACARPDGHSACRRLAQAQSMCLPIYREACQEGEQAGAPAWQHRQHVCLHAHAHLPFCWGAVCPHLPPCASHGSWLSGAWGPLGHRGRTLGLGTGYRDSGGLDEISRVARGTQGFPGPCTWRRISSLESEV
Summary of the method: as §1

TMEM50A_C13 = biological target: T3, TMEM50A_C13 (Homo sapiens, UniProt O95807)
T3 construct: endogenous in cells; host or cells: 22Rv1
T3 sequence (O95807 whole entry): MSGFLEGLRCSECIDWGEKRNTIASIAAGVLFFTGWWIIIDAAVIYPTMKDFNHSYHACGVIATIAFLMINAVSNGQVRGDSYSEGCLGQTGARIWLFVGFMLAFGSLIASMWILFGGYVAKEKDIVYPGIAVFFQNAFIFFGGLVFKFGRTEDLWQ
Summary of the method: as §1

DENND2B_C804 = biological target: T4, DENND2B_C804 (Homo sapiens, UniProt P78524)
T4 construct: endogenous in cells; host or cells: 22Rv1
T4 sequence (P78524 1-1137): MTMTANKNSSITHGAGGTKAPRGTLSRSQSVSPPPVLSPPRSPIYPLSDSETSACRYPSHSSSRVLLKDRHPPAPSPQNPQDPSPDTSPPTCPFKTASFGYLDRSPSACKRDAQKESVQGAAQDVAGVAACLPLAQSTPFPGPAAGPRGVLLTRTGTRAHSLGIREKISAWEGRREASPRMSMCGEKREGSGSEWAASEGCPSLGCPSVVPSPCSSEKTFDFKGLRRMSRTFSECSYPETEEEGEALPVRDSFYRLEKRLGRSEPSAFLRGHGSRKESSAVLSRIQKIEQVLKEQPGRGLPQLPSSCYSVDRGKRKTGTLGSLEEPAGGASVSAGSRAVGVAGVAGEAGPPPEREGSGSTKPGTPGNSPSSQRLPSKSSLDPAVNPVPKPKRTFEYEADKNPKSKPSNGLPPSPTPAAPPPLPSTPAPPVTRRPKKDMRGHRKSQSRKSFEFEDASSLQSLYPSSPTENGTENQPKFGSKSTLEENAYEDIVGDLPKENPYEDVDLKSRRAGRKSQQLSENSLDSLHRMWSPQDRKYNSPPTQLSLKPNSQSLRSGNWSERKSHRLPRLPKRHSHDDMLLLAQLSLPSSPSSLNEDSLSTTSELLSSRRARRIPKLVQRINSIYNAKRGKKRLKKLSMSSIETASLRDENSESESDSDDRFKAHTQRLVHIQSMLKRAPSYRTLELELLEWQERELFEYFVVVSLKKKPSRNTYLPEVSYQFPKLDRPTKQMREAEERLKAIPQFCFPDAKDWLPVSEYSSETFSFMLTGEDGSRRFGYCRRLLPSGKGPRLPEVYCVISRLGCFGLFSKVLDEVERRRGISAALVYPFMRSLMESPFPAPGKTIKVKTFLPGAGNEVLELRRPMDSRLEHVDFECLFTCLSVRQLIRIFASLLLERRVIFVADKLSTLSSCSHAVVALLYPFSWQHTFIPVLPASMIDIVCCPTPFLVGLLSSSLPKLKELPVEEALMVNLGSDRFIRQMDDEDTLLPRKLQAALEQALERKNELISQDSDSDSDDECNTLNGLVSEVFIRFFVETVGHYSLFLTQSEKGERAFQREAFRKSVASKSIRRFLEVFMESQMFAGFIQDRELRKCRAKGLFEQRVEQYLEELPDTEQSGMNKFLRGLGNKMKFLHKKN
Summary of the method: as §1

T1 sequence (Q13370 whole entry): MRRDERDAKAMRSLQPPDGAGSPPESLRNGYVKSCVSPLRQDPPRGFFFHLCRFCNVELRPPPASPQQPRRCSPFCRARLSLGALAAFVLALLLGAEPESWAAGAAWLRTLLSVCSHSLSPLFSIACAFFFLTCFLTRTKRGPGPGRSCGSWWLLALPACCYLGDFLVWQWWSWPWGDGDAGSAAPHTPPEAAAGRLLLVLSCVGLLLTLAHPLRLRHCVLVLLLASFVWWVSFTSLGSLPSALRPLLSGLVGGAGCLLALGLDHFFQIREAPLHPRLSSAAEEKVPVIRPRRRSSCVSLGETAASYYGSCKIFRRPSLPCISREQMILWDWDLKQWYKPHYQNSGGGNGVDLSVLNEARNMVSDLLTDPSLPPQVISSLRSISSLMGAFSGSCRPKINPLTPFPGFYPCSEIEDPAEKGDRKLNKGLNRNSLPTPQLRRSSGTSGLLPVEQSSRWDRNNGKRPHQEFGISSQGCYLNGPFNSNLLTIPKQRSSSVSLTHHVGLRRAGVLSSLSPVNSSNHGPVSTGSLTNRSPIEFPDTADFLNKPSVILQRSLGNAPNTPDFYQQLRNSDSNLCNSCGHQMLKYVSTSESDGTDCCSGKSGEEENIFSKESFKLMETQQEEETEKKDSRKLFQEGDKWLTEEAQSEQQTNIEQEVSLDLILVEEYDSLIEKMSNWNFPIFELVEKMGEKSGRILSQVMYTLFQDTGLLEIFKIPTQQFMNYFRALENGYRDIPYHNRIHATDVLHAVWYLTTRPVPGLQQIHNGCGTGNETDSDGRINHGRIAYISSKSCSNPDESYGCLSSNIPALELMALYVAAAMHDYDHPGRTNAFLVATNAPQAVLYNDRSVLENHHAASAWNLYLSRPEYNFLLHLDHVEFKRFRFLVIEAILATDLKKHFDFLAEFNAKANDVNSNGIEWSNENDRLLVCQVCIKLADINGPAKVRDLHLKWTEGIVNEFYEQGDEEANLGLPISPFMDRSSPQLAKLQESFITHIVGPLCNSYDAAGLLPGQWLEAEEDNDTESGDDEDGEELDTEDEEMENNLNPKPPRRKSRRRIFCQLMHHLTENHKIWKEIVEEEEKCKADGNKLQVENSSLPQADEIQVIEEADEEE

| % engagement PDE3B_C311 (PDE3B_C311) [%] | % engagement GRIN2C_C1105 (GRIN2C_C1105) [%] | % engagement TMEM50A_C13 (TMEM50A_C13) [%] | % engagement DENND2B_C804 (DENND2B_C804) [%] | SMILES |
| --- | --- | --- | --- | --- |
| 75.5 | 64.5 | 68.5 | −5.75 | C=CC(=O)N1C[C@H](c2ccc(Br)cc2)[C@H]1C(=O)Nc1cccc2cccnc12 [MY-3B, (2S,3S)-1-acryloyl-3-(4-bromophenyl)-N-(quinolin-8-yl)azetidine-2-carboxamide] |
| 58 | 40.5 | 58 | 80.25 | C=CC(=O)N1C[C@H](c2ccc(Br)cc2)[C@@H]1C(=O)Nc1cccc2cccnc12 [MY-1B, (2R,3S)-1-acryloyl-3-(4-bromophenyl)-N-(quinolin-8-yl)azetidine-2-carboxamide] |
| 49 | 85 | 60.5 | −5.25 | C=CC(=O)N1C[C@H](c2ccc(Br)cc2)[C@H]1C(=O)Nc1cccc2cccnc12 [MY-3A, (2S,3S)-1-acryloyl-3-(4-bromophenyl)-N-(quinolin-8-yl)azetidine-2-carboxamide] |
| 57.5 | 78.5 | 63.5 | 29.25 | C=CC(=O)N1C[C@@H](c2ccc(Br)cc2)[C@H]1C(=O)Nc1cccc2cccnc12 [MY-1A, (2S,3R)-1-acryloyl-3-(4-bromophenyl)-N-(quinolin-8-yl)azetidine-2-carboxamide] |
